Assay results published in patent US9173395B2, “Use of substituted isoquinolinones, isoquinolindiones, isoquinolintriones and dihydroisoquinolinones or in each case salts thereof as active agents against abiotic stress in plants” (BAYER INTELLECTUAL PROPERTY GMBH, priority 2011, dated 2015).

What was measured:
BRSNS = assay: Drought stress test on crop plants, visual damage rating, efficacy EF; format: in vivo, Brassica napus; settings: dosage 25 g/ha, mean of three results
Description: (§1) Seeds of monocotyledonous and dicotyledonous crop plants were laid out in sandy loam in wood-fiber pots, covered with soil and cultivated in a greenhouse under good growth conditions. The test plants were treated at the early leaf stage (BBCH10-BBCH13). To ensure uniform water supply before commencement of stress, the potted plants were supplied with the maximum amount of water immediately beforehand by dam irrigation and, after application, transferred into plastic inserts in order to prevent subsequent, excessively rapid drying. The compounds according to the invention, formulated in the form of wettable powders (WP), wettable granules (WG), suspension concentrates (SC) or emulsion concentrates (EC), were sprayed onto the green parts of the plants as an aqueous suspension at an equivalent water application rate of 600 I/ha with addition of 0.2% wetting agent (agrotin). Substance application is followed immediately by stress treatment of the plants (cold or drought stress). […]
(§2) After the recovery phase had ended, the intensities of damage were rated visually in comparison to untreated, unstressed controls of the same age (in the case of drought stress) or the same growth stage (in the case of cold stress). The intensity of damage was first recorded as a percentage (100%=plants have died, 0%=like control plants). […]

TRZAS = assay: as above; format: in vivo, Triticum aestivum; settings: dosage 25 g/ha, mean of three results
Description: as §1, §2

Question: Which results are given for `O=c1[nH]ccc2ccc(-c3ccc(Cl)cc3F)cc12` [I.1-252, 7-(4-chloro-2-fluorophenyl)isoquinolin-1(2H)-one]?
Answer: EF (BRSNS) (BRSNS): >5%; EF (TRZAS) (TRZAS): >5%
